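96-well plates; 48 h exposure; 5 concentrations. Endpoints by linear interpolation between flanking doses. Not reached: highest tested concentration assigned. The concentration for 50% growth inhibition is given as GI50.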 The source made the active and inactive calls. Rule as the data show it: active = GI50 up to about 1.1 µM and inactive = higher.
What was measured:
Assay in all cases: NCI-60 cell line screen, 48 h
LXFL 529 = test system: LXFL 529
OVCAR-3 = test system: OVCAR-3
OVCAR-8 = test system: OVCAR-8
NCI-H23 = test system: NCI-H23
SW-620 = test system: SW-620
COLO 205 = test system: COLO 205
DMS-114 = test system: DMS-114
NCI-H226 = test system: NCI-H226
SF-268 = test system: SF-268
Malme-3M = test system: Malme-3M
HCT-116 = test system: HCT-116
KM12 = test system: KM12
SK-MEL-5 = test system: SK-MEL-5
UACC-62 = test system: UACC-62
HCT-15 = test system: HCT-15
LOX IMVI = test system: LOX IMVI
Hs-578T = test system: Hs-578T
MDA-MB-231 = test system: MDA-MB-231
MCF7 = test system: MCF7
NCI/ADR-RES = test system: NCI/ADR-RES

SMILES	GI50 (LXFL 529)	GI50 (OVCAR-3)	GI50 (OVCAR-8)	GI50 (NCI-H23)	GI50 (SW-620)	GI50 (COLO 205)	GI50 (DMS-114)	GI50 (NCI-H226)	GI50 (SF-268)	GI50 (Malme-3M)	GI50 (HCT-116)	GI50 (KM12)	GI50 (SK-MEL-5)	GI50 (UACC-62)	GI50 (HCT-15) [µM]	GI50 (LOX IMVI)	GI50 (Hs-578T)	GI50 (MDA-MB-231)	GI50 (MCF7)	GI50 (NCI/ADR-RES)
N#CCCC[Si]12OCCN(CCO1)CCO2	> 100 µM (inactive)	> 100 µM (inactive)	> 100 µM (inactive)	> 100 µM (inactive)	> 100 µM (inactive)	> 100 µM (inactive)	> 100 µM (inactive)	> 100 µM (inactive)	> 100 µM (inactive)	> 100 µM (inactive)	> 100 µM (inactive)	> 100 µM (inactive)	> 100 µM (inactive)	> 100 µM (inactive)						
CC(=O)OCC1OC(OCc2ccccc2)C(Br)C(OC(C)=O)C1OC(C)=O (stereo not drawn)	> 100 µM (inactive)	> 100 µM (inactive)	> 100 µM (inactive)	> 100 µM (inactive)	> 100 µM (inactive)	> 100 µM (inactive)		> 100 µM (inactive)	> 100 µM (inactive)	> 100 µM (inactive)	> 100 µM (inactive)	> 100 µM (inactive)	> 100 µM (inactive)	> 100 µM (inactive)	> 100	> 100 µM (inactive)				
CC(CN(C)C)/C(=N\Nc1ccccc1)c1ccccc1 (stereo not drawn)	0.0473 µM (active)	1.16 µM (inactive)	12.7 µM (inactive)	3.4 µM (inactive)	0.142 µM (active)	1.03 µM (active)	0.743 µM (active)		0.22 µM (active)	10.7 µM (inactive)	0.415 µM (active)	0.0826 µM (active)	3.3 µM (inactive)	0.0755 µM (active)	0.0955	0.0456 µM (active)				
O=C(/C=C/c1ccc(O)c(O)c1)c1ccc(O)cc1O [BUTEIN]		15.4 µM (inactive)	17.9 µM (inactive)	16.7 µM (inactive)	8.53 µM (inactive)	14.5 µM (inactive)	2.47 µM (inactive)	17.3 µM (inactive)	14.8 µM (inactive)	13.9 µM (inactive)	13 µM (inactive)	10.2 µM (inactive)	11.6 µM (inactive)	16.9 µM (inactive)	16.3	8.26 µM (inactive)	19.4 µM (inactive)	15.8 µM (inactive)	3.98 µM (inactive)	17.4 µM (inactive)
Cc1cccc(NC(=O)CC#N)c1Cl	> 100 µM (inactive)	> 100 µM (inactive)		> 100 µM (inactive)	> 100 µM (inactive)			> 100 µM (inactive)	> 100 µM (inactive)	> 100 µM (inactive)	> 100 µM (inactive)	> 100 µM (inactive)		> 100 µM (inactive)	> 100	> 100 µM (inactive)				
Cc1ccc([N+]2=NC(c3ccc([N+](=O)[O-])cc3)=NN(c3ccccc3)C2)cc1	42.1 µM (inactive)	> 100 µM (inactive)	42.1 µM (inactive)	38.4 µM (inactive)	> 100 µM (inactive)	> 100 µM (inactive)	40.1 µM (inactive)	> 100 µM (inactive)	> 100 µM (inactive)	> 100 µM (inactive)	59.7 µM (inactive)		33.2 µM (inactive)		38.6	60 µM (inactive)				
Clc1ccccc1C(n1cc(Br)cn1)n1cc(Br)cn1	95.7 µM (inactive)	> 10 µM (inactive)	19.3 µM (inactive)	23.1 µM (inactive)	> 10 µM (inactive)		21.4 µM (inactive)	> 10 µM (inactive)	> 10 µM (inactive)	17.2 µM (inactive)	15 µM (inactive)	15.3 µM (inactive)	11 µM (inactive)	> 10 µM (inactive)	> 10	17 µM (inactive)				
O=C1Cc2ccccc2CCc2ccsc21	> 100 µM (inactive)	> 100 µM (inactive)	> 100 µM (inactive)	> 100 µM (inactive)	> 100 µM (inactive)	> 100 µM (inactive)		> 100 µM (inactive)	> 100 µM (inactive)	> 100 µM (inactive)	> 100 µM (inactive)	> 100 µM (inactive)	> 100 µM (inactive)		> 100	> 100 µM (inactive)				
CC(=O)Nc1ccc2c(c1)C(=O)c1ccccc1-2	> 100 µM (inactive)	> 100 µM (inactive)	> 100 µM (inactive)	> 100 µM (inactive)	> 100 µM (inactive)	> 100 µM (inactive)	> 100 µM (inactive)	> 100 µM (inactive)	> 100 µM (inactive)	> 100 µM (inactive)	> 100 µM (inactive)	> 100 µM (inactive)		> 100 µM (inactive)	> 100	> 100 µM (inactive)				
CCOC1(COP(=O)(OCc2ccccc2)OCc2ccccc2)COC(COP(=O)(OCc2ccccc2)OCc2ccccc2)(OCC)CO1 (stereo not drawn)	> 100 µM (inactive)	> 100 µM (inactive)	59 µM (inactive)	> 100 µM (inactive)	> 100 µM (inactive)	> 100 µM (inactive)		89.7 µM (inactive)	> 100 µM (inactive)	> 100 µM (inactive)	> 100 µM (inactive)	> 100 µM (inactive)	> 100 µM (inactive)	> 100 µM (inactive)	> 100	> 100 µM (inactive)				
CC(=O)CC(=O)CCCC(=O)Nc1ccc(Cl)cc1Cl	> 100 µM (inactive)	> 100 µM (inactive)	> 100 µM (inactive)	> 100 µM (inactive)	> 100 µM (inactive)	> 100 µM (inactive)		> 100 µM (inactive)	> 100 µM (inactive)	> 100 µM (inactive)	> 100 µM (inactive)	> 100 µM (inactive)		> 100 µM (inactive)	> 100	> 100 µM (inactive)				
CCC/C=C\C=C\C1(NS(=O)(=O)c2ccc(C)cc2)CCC(C(C)(C)C)CC1 (stereo not drawn)	25.2 µM (inactive)	7.01 µM (inactive)	> 10 µM (inactive)	14.1 µM (inactive)	17.9 µM (inactive)	14.5 µM (inactive)		20.5 µM (inactive)	17.4 µM (inactive)	14.9 µM (inactive)	15.4 µM (inactive)	16.5 µM (inactive)	16.7 µM (inactive)	21.3 µM (inactive)	17.5					
O=C(Nc1nc2ccc([N+](=O)[O-])cc2s1)C(=O)C(C(=O)c1ccncc1)C1OC(=O)c2ccccc21 (stereo not drawn)	> 100 µM (inactive)	> 100 µM (inactive)	> 100 µM (inactive)	> 100 µM (inactive)	> 100 µM (inactive)	> 100 µM (inactive)	> 100 µM (inactive)	> 100 µM (inactive)	> 100 µM (inactive)	> 100 µM (inactive)	> 100 µM (inactive)	> 100 µM (inactive)		> 100 µM (inactive)	> 100					
O=P1(Oc2ccccc2)N(CCCl)CCN1c1ccccc1 (stereo not drawn)		> 100 µM (inactive)	> 100 µM (inactive)	> 100 µM (inactive)	> 100 µM (inactive)	> 100 µM (inactive)		> 100 µM (inactive)	> 100 µM (inactive)	> 100 µM (inactive)	75.3 µM (inactive)	> 100 µM (inactive)	66.5 µM (inactive)	> 100 µM (inactive)	> 100	> 100 µM (inactive)	> 100 µM (inactive)	95.7 µM (inactive)	70.1 µM (inactive)	83.6 µM (inactive)
COc1cc([C@@H]2OC(=O)C3C2C(=O)O[C@H]3c2cc(OC)c(OC)c(OC)c2)cc(OC)c1OC (stereo partly drawn)		> 100 µM (inactive)	> 100 µM (inactive)	> 100 µM (inactive)	> 100 µM (inactive)	> 100 µM (inactive)	> 100 µM (inactive)	38.8 µM (inactive)	> 100 µM (inactive)		> 100 µM (inactive)	> 100 µM (inactive)	> 100 µM (inactive)	> 100 µM (inactive)	> 100	> 100 µM (inactive)				
Cc1ccc(S(=O)(=O)CC(=O)CC(=O)C(=O)Nc2cccc(C(F)(F)F)c2)cc1	> 100 µM (inactive)	> 100 µM (inactive)		> 100 µM (inactive)	> 100 µM (inactive)			> 100 µM (inactive)	> 100 µM (inactive)	81.3 µM (inactive)	44.4 µM (inactive)	> 100 µM (inactive)	> 100 µM (inactive)	> 100 µM (inactive)	> 100	> 100 µM (inactive)				
Cc1c(/C=N/NC(=O)c2ccc(Cl)cc2)c(=O)n(-c2ccccc2)n1C	> 100 µM (inactive)	> 100 µM (inactive)	> 100 µM (inactive)	> 100 µM (inactive)	> 100 µM (inactive)	> 100 µM (inactive)	> 100 µM (inactive)	> 100 µM (inactive)	> 100 µM (inactive)	> 100 µM (inactive)	> 100 µM (inactive)	> 100 µM (inactive)		> 100 µM (inactive)	> 100	> 100 µM (inactive)				
Cc1ccc(C2SC(=N)Nc3c2c(C)nn3C(=O)c2ccccc2O)cc1 (stereo not drawn)		> 10 µM (inactive)	> 10 µM (inactive)	7 µM (inactive)	> 10 µM (inactive)	> 10 µM (inactive)		> 10 µM (inactive)	9.44 µM (inactive)	> 10 µM (inactive)	> 10 µM (inactive)	> 10 µM (inactive)	4.37 µM (inactive)	1.41 µM (inactive)	> 10	> 10 µM (inactive)	1.51 µM (inactive)	> 10 µM (inactive)	> 10 µM (inactive)	> 10 µM (inactive)

From ChEMBL document CHEMBL1201862, “PubChem BioAssay data set” (2004)
